Read-outs that look alike come from different tables or passages of the source.
Key:
[1] = system: HCC827 cells; test: HCC827 cell proliferation assay, single agents and combinations; type: cell-based, human
[2] = system: MKN-45 cells; test: MET cell proliferation assay, MKN-45 (CellTiter-Glo); type: cell-based; conditions: Homo sapiens, 72 hours treatment
Description: (§1) Two thousand cells per well were seeded in 384 well white plate for 24 hrs, and then treated with compounds for 72 hours (37° C., 5% CO2). Cell proliferation was measured using CellTiter-Glo luciferase-based ATP detection assay (Promega) following the manufacturer's protocol. IC50 determinations were performed using GraphPad Prism software (GraphPad, Inc., San Diego, CA).
(§2) The anti-cell proliferation activities against MET and CSF1R driven cell lines were conducted with MKN-45, SNU-5, Ba/F3 TEL-CSF1R cells, and M-NFS-60 respectively.

[3] = target: T1, MET (Homo sapiens, UniProt P08581); test: Biochemical kinase assay (Reaction Biology), MET; conditions: 10 μM ATP; read-out: Enzymatic Kinase MET IC50
T1 construct: purchased Reaction Biology Corporation (assay service; enzyme from the CRO's panel)
T1 sequence (P08581 25-1390): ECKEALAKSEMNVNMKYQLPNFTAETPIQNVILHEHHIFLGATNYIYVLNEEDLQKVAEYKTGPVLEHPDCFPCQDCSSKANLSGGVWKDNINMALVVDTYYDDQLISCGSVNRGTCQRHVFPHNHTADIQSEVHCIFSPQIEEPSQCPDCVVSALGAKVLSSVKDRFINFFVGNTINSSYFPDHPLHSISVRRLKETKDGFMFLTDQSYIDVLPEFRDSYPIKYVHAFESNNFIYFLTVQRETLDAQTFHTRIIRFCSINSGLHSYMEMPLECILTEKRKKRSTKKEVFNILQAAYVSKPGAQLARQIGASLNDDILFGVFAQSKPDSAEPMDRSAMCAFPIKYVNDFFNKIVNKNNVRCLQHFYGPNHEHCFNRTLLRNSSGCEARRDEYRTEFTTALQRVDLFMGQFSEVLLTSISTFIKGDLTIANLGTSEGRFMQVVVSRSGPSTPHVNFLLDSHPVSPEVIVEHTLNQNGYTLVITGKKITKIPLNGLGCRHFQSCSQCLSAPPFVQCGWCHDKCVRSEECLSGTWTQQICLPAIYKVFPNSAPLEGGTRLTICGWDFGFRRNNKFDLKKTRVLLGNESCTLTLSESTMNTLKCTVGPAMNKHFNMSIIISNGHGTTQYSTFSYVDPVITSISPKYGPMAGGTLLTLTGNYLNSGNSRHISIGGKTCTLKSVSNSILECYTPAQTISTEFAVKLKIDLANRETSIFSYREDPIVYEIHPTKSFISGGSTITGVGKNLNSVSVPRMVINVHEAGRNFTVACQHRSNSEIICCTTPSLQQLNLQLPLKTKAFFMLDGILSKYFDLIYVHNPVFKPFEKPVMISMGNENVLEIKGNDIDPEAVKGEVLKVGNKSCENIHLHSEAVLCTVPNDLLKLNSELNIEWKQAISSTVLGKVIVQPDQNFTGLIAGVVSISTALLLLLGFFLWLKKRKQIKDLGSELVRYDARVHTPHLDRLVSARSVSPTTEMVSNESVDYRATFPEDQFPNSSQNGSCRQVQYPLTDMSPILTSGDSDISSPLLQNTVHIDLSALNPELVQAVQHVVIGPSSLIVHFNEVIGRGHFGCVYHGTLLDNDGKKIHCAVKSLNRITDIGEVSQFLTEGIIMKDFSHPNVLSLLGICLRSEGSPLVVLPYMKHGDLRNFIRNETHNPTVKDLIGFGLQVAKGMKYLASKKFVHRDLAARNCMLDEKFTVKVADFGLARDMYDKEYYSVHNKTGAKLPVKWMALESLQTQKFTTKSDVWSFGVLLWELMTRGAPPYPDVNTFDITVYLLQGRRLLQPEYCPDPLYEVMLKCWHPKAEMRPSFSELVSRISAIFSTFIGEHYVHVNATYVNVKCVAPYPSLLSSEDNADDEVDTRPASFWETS
Description: (§3) Specific kinase/substrate pairs along with required cofactors were prepared in reaction buffer; 20 mM Hepes pH 7.5, 10 mM MgCl2,1 mM EGTA, 0.02% Brij35, 0.02 mg/ml BSA, 0.1 mM Na3VO4, 2 mM DTT, 1% DMSO (for specific details of individual kinase reaction components see Supplementary Table 2). Compounds were delivered into the reaction, followed ˜20 minutes later by addition of a mixture of ATP (Sigma, St. Louis MO) and ^33P ATP (Perkin Elmer, Waltham MA) to a final concentration of 10 μM. Reactions were carried out at room temperature for 120 min, followed by spotting of the reactions onto P81 ion exchange filter paper (Whatman Inc., Piscataway, NJ). […] IC50 values and curve fits were obtained using Prism (GraphPad Software).
(§4) The enzymatic kinase inhibition activities at 10 μM ATP concentration were determined at Reaction Biology.

[4] = system: SNU-5 cells; test: MET cell proliferation assay, SNU-5 (CellTiter-Glo); type: cell-based; conditions: Homo sapiens, 72 hours treatment
Description: as §1, §2

[5] = target: T2, SRC (Homo sapiens, UniProt P12931); test: Biochemical kinase assay (Reaction Biology), SRC; conditions: 10 μM ATP; read-out: Enzymatic Kinase SRC IC50
T2 construct: purchased Reaction Biology Corporation (assay service; enzyme from the CRO's panel)
T2 sequence (P12931 whole entry): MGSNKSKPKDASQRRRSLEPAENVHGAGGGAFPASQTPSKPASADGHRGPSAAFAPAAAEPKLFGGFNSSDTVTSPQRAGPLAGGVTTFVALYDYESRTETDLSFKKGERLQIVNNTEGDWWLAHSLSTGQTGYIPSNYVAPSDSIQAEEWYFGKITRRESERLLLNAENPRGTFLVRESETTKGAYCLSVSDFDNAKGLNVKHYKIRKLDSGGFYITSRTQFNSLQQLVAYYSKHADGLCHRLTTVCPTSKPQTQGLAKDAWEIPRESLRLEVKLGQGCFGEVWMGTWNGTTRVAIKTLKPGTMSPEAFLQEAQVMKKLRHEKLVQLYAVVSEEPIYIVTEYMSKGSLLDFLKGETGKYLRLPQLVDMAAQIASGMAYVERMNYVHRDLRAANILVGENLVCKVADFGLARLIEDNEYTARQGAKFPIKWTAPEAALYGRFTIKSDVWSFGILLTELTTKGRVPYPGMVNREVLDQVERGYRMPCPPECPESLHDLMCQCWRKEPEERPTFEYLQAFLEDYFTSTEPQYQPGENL
Description: as §3, with “The biochemical kinase assay was performed at Reaction Biology Corporation (www.reactionbiology.com, Malvern, PA) following the procedures described in the reference (Anastassiadis T, et al Nat Biotechnol. 2011, 29, 1039). Specific” for “Specific”, “NJ). Unbound phosphate was removed by extensive washing of filters in 0.75% phosphoric acid.” for “NJ).”
as §4

[6] = target: T3, c-FMS (CSF1R) (Homo sapiens, UniProt P07333); test: Biochemical kinase assay (Reaction Biology), c-FMS (CSF1R); conditions: 10 μM ATP; read-out: Enzymatic Kinase c-FMS (CSF1R) IC50
T3 construct: purchased Reaction Biology Corporation (assay service; enzyme from the CRO's panel)
T3 sequence (P07333 20-972): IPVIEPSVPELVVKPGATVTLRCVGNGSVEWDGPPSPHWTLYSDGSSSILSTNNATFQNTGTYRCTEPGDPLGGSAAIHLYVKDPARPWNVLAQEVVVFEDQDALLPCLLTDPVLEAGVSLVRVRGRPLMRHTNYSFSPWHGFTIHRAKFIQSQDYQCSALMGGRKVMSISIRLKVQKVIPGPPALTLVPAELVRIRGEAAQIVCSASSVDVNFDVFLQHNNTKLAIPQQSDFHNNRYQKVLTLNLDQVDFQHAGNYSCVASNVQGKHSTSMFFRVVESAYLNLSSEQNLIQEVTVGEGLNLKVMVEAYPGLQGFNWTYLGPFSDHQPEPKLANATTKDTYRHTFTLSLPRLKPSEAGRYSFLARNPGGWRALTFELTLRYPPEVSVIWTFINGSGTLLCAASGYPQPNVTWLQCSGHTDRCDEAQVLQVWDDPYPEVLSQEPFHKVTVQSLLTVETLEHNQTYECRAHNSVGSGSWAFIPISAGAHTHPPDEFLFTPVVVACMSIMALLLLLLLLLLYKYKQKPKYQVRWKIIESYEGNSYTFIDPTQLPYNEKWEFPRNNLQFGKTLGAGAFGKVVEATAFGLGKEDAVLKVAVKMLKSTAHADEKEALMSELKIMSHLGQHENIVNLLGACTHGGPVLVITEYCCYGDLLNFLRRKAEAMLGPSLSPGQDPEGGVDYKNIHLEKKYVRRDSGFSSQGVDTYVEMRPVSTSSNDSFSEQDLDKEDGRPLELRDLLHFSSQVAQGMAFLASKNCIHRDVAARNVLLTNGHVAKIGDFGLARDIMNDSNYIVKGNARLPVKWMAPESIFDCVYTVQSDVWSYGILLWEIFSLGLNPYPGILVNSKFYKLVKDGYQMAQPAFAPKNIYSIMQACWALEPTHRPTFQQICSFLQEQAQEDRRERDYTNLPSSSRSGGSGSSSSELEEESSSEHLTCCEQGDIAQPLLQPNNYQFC
Description: as §3, §4

[7] = system: M-NFS-60 cells; test: M-NFS-60 cell proliferation at varied CSF-1; type: cell-based; conditions: Mus musculus, read-out: M-NFS-60 IC50
Description: as §1, §2

[8] = system: MKN-45 cells; test: Scratch wound healing assay, MKN-45; type: cell-based; conditions: 36-48 hours treatment
Description: (§5) MKN-45 or HCC827 cells were seeded in 24-well plate. After 12-24 hours, confluent cell monolayers were gently scraped with a sterile pipette tip to form a scratch. The plates were washed with fresh medium, and the cells were incubated with medium alone or medium containing various concentration of compounds. After 36-48 hours, the plates were examined and recorded by an EVOS FL microscopy (Life Technology) to monitor rescaling of the cell monolayer.

[9] = system: HCC827 cells; test: Scratch wound healing assay, HCC827; type: cell-based, human; conditions: 36-48 hours treatment
Description: as §5

| Structure (SMILES) | IC50 [2] [nM] | IC50 [3] [nM] | IC50 [4] [nM] | IC50 [5] [nM] | also measured |
| --- | --- | --- | --- | --- | --- |
| C=CC(=O)Nc1cc(Nc2nccc(-c3cn(C)c4ccccc34)n2)c(OC)cc1N(C)CCN(C)C [AZD9291] |  |  |  |  | Emax ([1]; Homo sapiens, HCC827, read-out: HCC827 cell proliferation Emax (maximum inhibition)): 47%; IC50 ([1]; Homo sapiens, HCC827, read-out: HCC827 cell proliferation IC50): 5 nM |
| CCN1Cc2c(C#N)cccc2O[C@@H](C)CNC(=O)c2cnn3ccc1nc23 [Compound 2, (7S)-14-ethyl-7-methyl-4-oxo-4,5,6.7,13,14-hexahydro-1,15-ethenopyrazolo[4,3-f][1,4,8,10]benzoxatriazacyclotridecine-12-carbonitrile] | 129 | 36.5 | 136 | 3 |  |
| CCN1Cc2c(C#N)cccc2OCCNC(=O)c2cnn3ccc1nc23 [Compound 3, 14-ethyl-4-oxo-4,5,6,7,13,14-hexahydro-1,15-ethenopyrazolo[4,3-f][1,4,8,10]benzoxatriazacyclotridecine-12-carbonitrile] | 471 | 110 | 674 | 97.1 |  |
| FC(F)(F)c1ccc(CNc2ccc(Cc3c[nH]c4ncc(Cl)cc34)cn2)cn1 [Pexidartinib, reference compound] |  |  |  |  | IC50 ([7]; CSF-1 0 ng/mL): < 0.1 nM; IC50 ([7]; CSF-1 0.3 ng/mL): 2 nM; IC50 ([7]; CSF-1 1 ng/mL): 146 nM; IC50 ([7]; CSF-1 3 ng/mL): 212 nM; IC50 ([7]; CSF-1 10 ng/mL): 380 nM; IC50 ([7]; CSF-1 30 ng/mL): 595 nM; IC50 ([7]; CSF-1 100 ng/mL): 702 nM |
| CNC(=O)c1ccc(-c2cnc3ncc(Cc4ccc5ncccc5c4)n3n2)cc1F [capmatinib] |  |  |  |  | cell migration of MKN-45 cells, wound healing [8]: inhibited; cell migration of HCC827 cells, wound healing [9]: minimum effect; cell migration of HCC827 cells, wound healing ([9]; listed as campmatinib): minimal effect; IC50 ([1]; Homo sapiens, HCC827, combination partner at 1 μM where combined, AZD9291 curves partial, read-out: HCC827 cell proliferation IC50): > 10000 nM; HCC827 cell proliferation IC50 ([1]; combination partner at 1 μM where combined, AZD9291 curves partial): not active |

More lines, main results first:

| IC50 [2] [nM] | IC50 [3] [nM] | IC50 [4] [nM] | IC50 [5] [nM] | Structure (SMILES) | also measured |
| --- | --- | --- | --- | --- | --- |
| 193 | 20.4 | 174 |  | CCN1Cc2c(ccc(F)c2Cl)O[C@@H](C)CNC(=O)c2c(N)nn3ccc1nc23 [Compound 1, (7S)-3-amino-12-chloro-14-ethyl-11-fluoro-7-methyl-6,7,13,14-tetrahydro-1,15-ethenopyrazolo[4,3-f][1,4,8,10]benzoxatriazacyclotridecin-4(5H)-one] |  |
| 12 | 1.85 | 5.8 | 0.49 | CCN1Cc2c(ccc(F)c2C#N)O[C@@H](C)CNC(=O)c2cnn3ccc1nc23 [Compound 4, (7S)-14-ethyl-11-fluoro-7-methyl-4-oxo-4,5,6,7,13,14-hexahydro-1,15-ethenopyrazolo[4,3-f][1,4,8,10]benzoxatriazacyclotridecine-12-carbonitrile] | IC50 [6]: 0.42 nM |
| 58.3 | 9.7 | 36.8 | 13.6 | CCN1Cc2c(C#N)cccc2O[C@@H](C)CNC(=O)c2c(N)nn3ccc1nc23 [Compound 6, (7S)-3-amino-14-ethyl-7-methyl-4-oxo-4,5,6,7,13,14-hexahydro-1,15-ethenopyrazolo[4,3-f][1,4,8,10]benzoxatriazacyclotridecine-12-carbonitrile] |  |
| 17.7 | 2.2 | 1 | 0.7 | C[C@H]1CNC(=O)c2c(N)nn3ccc(nc23)N(CC2CC2)Cc2c(ccc(F)c2C#N)O1 [Compound 7, (7S)-3-amino-14-(cyclopropylmethyl)-11-fluoro-7-methyl-4-oxo-4,5,6,7,13,14-hexahydro-1,15-ethenopyrazolo[4,3-f][1,4,8,10]benzoxatriazacyclotridecine-12-carbonitrile] |  |
| 1 | 3.8 | 1 | 0.83 | CC(C)N1Cc2c(ccc(F)c2C#N)O[C@@H](C)CNC(=O)c2c(N)nn3ccc1nc23 [Compound 8, (7S)-3-amino-11-fluoro-7-methyl-4-oxo-14-(propan-2-yl)-4,5,6,7,13,14-hexahydro-1,15-ethenopyrazolo[4,3-f][1,4,8,10]benzoxatriazacyclotridecine-12-carbonitrile] |  |
| 297 |  |  |  | C[C@H]1CNC(=O)c2c(N)nn3ccc(nc23)NCc2c(ccc(F)c2C#N)O1 [Compound 9, (7S)-3-amino-11-fluoro-7-methyl-4-oxo-4,5,6,7,13,14-hexahydro-1,15-ethenopyrazolo[4,3-f][1,4,8,10]benzoxatriazacyclotridecine-12-carbonitrile] |  |
